Source: paper PMC7714403 (JCI Insight, 2020)

Legend:
PIK3CB = PIK3CB (Homo sapiens, UniProt P42338); assay: KiNativ, OCI cells live cell; assay type: cell-based; details: 2 h, labeling site ATP, peptide […]
CaMKK2 = CaMKK2 (Homo sapiens, UniProt Q96RR4); assay: KiNativ, OCI cells live cell; assay type: cell-based; details: 2 h, labeling site Lys2, peptide […]
STLK5 = target: T1, STLK5 (Homo sapiens, UniProt Q7RTN6); assay: KiNativ, OCI cells live cell; assay type: cell-based; details: 2 h, labeling site Lys2, peptide […]
T1 sequence (Q7RTN6 1-431): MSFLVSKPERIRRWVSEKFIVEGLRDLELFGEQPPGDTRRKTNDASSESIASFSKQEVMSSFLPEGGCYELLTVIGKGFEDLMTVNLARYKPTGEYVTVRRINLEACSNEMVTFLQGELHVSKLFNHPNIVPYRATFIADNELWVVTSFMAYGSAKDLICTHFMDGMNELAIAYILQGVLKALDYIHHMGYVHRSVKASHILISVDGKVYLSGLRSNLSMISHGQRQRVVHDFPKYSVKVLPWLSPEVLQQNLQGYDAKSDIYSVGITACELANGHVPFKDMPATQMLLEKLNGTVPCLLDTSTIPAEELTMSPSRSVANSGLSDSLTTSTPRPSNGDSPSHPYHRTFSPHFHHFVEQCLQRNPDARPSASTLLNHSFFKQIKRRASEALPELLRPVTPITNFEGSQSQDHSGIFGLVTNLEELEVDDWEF

PAK2 = PAK2 (Homo sapiens, UniProt Q13177); assay: KiNativ, OCI cells live cell; assay type: cell-based; details: 2 h
MAP2K3 = target: T2, MAP2K3 (Homo sapiens, UniProt P46734); assay: KiNativ, OCI cells live cell; assay type: cell-based; details: 2 h
T2 sequence (P46734 1-347): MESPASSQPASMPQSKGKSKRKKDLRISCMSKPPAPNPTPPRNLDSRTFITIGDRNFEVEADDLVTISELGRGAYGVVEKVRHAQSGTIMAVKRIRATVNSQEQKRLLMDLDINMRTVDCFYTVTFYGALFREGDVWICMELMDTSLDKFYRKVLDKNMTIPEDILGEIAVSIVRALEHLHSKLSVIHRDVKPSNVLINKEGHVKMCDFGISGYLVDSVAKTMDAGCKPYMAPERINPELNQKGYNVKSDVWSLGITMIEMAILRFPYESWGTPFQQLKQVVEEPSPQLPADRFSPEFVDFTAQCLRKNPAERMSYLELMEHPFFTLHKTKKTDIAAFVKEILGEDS

IKKa = IKKa (Homo sapiens, UniProt O15111); assay: KiNativ, OCI cells live cell; assay type: cell-based; details: 2 h, labeling site Lys2, peptide […]
MAP3K2 = MAP3K2 (Homo sapiens, UniProt Q9Y2U5); assay: KiNativ, OCI cells live cell; assay type: cell-based; details: 2 h, labeling site Lys1, peptide […]
FLT3-ITD and TKD mutants = assay: KdELECT binding assay; details: range over FLT3-ITD and TKD mutants
TAO1, TAO3 = assay: KiNativ, OCI cells live cell; assay type: cell-based, human; details: labeling site Lys2, peptide DIKAGNILLTEPGQVK
MARK2, MARK3 = assay: KiNativ, OCI cells live cell; assay type: cell-based, human; details: labeling site Lys2, peptide DLKAENLLLDADMNIK
RSK2 domain2 = target: T3, RSK2 domain2 (Homo sapiens, UniProt P51812); assay: KiNativ, OCI cells live cell; assay type: cell-based; details: 2 h, labeling site Lys2, peptide […]
T3 construct: RSK2 domain2

PAN3 = target: T4, PAN3 (Homo sapiens, UniProt Q58A45); assay: KiNativ, OCI cells live cell; assay type: cell-based; details: 2 h, labeling site ATP
T4 sequence (Q58A45 1-887): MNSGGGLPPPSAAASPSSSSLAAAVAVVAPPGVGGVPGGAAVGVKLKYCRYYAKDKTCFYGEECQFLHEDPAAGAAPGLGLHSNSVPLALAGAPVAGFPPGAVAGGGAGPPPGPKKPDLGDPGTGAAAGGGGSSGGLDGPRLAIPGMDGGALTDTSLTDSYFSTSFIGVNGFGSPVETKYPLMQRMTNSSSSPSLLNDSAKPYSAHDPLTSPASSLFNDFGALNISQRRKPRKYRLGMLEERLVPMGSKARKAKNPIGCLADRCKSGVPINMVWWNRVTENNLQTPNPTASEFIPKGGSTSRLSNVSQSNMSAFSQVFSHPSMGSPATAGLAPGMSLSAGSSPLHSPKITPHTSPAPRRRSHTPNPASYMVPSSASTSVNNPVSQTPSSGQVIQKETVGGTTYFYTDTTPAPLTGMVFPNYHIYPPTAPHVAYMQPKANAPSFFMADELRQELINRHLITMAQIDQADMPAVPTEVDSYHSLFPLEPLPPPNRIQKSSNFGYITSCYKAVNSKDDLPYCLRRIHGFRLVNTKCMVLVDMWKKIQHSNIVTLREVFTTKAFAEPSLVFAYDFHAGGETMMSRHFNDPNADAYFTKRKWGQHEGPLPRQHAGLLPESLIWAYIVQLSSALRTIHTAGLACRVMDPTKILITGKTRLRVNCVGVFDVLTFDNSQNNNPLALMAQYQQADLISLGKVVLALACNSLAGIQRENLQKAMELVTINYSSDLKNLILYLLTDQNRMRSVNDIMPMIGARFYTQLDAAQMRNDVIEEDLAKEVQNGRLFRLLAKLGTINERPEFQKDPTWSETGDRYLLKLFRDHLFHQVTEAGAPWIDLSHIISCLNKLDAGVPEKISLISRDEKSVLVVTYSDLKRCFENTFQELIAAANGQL

PCTAIRE1, PCTAIRE3 = assay: KiNativ, OCI cells live cell; assay type: cell-based, human; details: labeling site Lys2, peptide DLKPQNLLINER
MAP3K1 = MAP3K1 (Homo sapiens, UniProt Q13233); assay: KiNativ, OCI cells live cell; assay type: cell-based; details: 2 h, labeling site Lys2, peptide […]
eEF2K = eEF2K (Homo sapiens, UniProt O00418); assay: KiNativ, OCI cells live cell; assay type: cell-based; details: 2 h, labeling site ATP, peptide […]
GSK3A = GSK3A (Homo sapiens, UniProt P49840); assay: KiNativ, OCI cells live cell; assay type: cell-based; details: 2 h, labeling site Lys2, peptide […]

PAK2, sequence (Q13177 whole entry): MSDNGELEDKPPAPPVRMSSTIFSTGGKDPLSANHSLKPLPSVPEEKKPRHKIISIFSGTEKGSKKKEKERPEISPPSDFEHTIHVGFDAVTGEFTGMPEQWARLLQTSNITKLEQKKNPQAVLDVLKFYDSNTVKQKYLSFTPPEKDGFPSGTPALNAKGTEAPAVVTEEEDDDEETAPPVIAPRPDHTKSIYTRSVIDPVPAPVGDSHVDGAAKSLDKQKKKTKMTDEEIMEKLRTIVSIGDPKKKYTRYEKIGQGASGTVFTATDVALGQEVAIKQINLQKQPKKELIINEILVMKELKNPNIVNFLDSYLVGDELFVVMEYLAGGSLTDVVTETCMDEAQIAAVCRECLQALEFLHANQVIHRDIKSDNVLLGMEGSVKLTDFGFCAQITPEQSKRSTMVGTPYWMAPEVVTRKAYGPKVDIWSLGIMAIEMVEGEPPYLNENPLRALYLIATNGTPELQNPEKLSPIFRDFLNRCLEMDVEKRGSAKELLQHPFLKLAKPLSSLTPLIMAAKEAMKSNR
PIK3CB, sequence (P42338 whole entry): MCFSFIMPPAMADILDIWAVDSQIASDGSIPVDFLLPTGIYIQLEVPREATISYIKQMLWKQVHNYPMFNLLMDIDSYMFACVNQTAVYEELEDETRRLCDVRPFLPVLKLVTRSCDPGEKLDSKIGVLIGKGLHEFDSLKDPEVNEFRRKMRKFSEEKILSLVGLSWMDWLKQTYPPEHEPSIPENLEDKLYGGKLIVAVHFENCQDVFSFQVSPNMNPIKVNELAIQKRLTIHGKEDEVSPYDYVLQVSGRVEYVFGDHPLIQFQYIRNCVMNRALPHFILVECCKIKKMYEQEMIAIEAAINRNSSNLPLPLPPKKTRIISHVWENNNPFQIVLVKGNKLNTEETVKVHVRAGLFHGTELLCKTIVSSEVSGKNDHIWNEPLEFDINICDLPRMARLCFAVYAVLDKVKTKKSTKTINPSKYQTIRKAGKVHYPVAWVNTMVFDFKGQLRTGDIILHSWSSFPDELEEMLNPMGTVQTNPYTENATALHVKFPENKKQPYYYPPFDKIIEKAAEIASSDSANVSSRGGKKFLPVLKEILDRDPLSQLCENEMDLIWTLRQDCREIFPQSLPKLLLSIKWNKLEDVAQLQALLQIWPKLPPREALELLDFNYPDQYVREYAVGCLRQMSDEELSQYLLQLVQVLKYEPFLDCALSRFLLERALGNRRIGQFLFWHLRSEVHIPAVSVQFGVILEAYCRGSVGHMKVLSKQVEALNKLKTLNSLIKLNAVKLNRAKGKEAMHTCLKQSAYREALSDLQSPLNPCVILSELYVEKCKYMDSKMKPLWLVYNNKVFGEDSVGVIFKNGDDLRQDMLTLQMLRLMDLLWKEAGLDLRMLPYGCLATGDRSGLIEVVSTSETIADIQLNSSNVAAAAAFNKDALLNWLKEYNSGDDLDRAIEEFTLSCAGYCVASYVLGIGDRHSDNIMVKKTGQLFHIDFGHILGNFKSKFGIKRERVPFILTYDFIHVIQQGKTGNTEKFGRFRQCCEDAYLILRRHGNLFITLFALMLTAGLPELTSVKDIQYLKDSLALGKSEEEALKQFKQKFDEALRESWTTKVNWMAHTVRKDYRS
PIK3CB, sequence (P27986 whole entry partner): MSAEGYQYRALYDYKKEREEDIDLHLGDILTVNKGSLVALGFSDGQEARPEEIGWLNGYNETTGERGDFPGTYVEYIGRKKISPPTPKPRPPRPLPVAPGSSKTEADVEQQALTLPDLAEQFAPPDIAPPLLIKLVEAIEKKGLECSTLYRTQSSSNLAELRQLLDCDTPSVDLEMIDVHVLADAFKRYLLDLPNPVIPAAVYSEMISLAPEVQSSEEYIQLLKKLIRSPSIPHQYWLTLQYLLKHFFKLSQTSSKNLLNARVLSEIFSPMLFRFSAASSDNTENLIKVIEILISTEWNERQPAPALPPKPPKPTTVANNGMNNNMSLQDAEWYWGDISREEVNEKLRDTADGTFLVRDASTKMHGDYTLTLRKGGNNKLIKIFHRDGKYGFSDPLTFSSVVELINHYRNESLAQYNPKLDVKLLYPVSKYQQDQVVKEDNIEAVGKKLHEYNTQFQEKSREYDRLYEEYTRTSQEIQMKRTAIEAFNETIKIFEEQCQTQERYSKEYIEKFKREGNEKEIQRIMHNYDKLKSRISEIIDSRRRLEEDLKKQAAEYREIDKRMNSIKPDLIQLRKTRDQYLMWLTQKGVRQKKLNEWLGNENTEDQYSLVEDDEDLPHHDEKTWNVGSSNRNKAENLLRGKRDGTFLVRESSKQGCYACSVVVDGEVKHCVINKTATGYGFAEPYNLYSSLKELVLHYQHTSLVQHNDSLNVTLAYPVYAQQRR
eEF2K, sequence (O00418 whole entry): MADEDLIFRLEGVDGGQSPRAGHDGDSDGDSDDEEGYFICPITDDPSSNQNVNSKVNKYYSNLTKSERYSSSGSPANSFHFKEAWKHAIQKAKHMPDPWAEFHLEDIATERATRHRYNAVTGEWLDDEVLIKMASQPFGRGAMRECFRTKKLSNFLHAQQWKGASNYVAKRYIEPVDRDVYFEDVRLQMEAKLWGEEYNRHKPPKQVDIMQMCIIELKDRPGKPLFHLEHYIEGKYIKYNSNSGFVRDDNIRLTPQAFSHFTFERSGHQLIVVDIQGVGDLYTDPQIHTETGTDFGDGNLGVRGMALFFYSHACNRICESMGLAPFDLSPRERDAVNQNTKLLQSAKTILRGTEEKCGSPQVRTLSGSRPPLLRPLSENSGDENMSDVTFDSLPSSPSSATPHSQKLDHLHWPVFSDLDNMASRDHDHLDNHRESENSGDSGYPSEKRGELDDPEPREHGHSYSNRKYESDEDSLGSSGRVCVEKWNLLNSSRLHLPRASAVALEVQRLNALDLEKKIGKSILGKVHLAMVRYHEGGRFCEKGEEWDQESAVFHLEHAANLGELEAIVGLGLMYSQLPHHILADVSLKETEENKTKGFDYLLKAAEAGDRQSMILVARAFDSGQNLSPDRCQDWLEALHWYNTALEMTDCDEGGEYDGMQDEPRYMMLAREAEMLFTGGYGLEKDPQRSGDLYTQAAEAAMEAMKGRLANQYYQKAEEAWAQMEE
IKKa, sequence (O15111 whole entry): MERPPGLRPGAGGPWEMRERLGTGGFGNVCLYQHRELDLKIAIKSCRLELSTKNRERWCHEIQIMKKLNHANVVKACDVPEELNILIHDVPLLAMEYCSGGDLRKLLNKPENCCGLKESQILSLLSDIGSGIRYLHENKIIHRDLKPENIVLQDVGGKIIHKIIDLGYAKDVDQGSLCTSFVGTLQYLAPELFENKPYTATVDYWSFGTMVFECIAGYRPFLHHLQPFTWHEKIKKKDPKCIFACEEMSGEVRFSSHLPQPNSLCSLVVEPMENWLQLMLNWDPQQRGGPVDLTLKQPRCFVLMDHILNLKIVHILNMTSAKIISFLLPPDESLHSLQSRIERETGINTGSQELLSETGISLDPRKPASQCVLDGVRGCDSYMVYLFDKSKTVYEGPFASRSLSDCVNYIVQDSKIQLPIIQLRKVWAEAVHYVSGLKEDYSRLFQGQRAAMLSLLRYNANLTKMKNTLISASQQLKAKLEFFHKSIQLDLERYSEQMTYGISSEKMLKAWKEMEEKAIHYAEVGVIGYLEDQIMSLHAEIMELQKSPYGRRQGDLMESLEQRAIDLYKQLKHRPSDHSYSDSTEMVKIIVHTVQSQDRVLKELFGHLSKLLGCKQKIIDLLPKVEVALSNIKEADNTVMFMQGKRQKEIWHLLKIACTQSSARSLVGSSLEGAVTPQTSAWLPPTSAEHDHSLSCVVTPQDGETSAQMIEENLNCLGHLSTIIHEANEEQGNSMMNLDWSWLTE
MAP3K2, sequence (Q9Y2U5 whole entry): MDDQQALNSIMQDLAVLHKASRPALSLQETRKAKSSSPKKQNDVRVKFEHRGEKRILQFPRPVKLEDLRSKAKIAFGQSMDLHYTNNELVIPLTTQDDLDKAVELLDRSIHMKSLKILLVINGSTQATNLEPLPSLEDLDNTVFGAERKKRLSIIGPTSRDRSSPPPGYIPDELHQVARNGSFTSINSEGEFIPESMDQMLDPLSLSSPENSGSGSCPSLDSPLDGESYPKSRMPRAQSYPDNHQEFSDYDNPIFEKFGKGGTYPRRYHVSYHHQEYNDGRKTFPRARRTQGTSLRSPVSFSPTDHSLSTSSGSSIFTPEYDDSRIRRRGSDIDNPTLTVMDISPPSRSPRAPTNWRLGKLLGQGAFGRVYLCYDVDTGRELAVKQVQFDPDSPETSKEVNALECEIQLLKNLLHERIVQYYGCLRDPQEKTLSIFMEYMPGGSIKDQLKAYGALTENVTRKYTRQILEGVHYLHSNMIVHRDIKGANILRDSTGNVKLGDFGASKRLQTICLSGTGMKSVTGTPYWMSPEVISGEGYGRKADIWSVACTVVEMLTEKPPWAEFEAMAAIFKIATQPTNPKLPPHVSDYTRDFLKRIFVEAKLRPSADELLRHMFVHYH
CaMKK2, sequence (Q96RR4 whole entry): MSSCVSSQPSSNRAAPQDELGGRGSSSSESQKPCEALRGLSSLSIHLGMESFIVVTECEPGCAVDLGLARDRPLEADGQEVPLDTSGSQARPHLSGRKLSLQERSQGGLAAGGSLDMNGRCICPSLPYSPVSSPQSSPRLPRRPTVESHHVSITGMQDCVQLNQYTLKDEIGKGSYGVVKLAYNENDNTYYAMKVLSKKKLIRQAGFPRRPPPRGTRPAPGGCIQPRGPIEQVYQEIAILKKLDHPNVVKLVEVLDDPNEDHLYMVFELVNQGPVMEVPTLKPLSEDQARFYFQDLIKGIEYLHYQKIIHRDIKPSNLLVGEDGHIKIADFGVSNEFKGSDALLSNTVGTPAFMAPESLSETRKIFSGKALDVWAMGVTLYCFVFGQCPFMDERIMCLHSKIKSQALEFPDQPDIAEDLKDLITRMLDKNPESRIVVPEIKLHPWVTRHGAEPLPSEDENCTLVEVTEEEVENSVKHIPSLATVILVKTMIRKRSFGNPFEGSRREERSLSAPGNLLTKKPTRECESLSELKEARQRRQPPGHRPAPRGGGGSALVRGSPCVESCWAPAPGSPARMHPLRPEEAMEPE

`CN1CCN(Cc2ccc(Nc3ncc(Cl)c(Nc4ccccc4S(=O)(=O)N(C)C)n3)cc2)CC1` [TP-0903] gave an inhibition at 0.1 µM (PIK3CB) of -7.2%, an inhibition at 0.1 µM (CaMKK2) of 63.2% and an inhibition at 0.1 µM (STLK5) of -46.6%. The inhibition at 0.1 µM (PAK2; labeling site Lys1, peptide IGQGASGTVFTATDVALGQEVAIKQINLQK) was -53.1%, the inhibition at 0.1 µM (PAK2; labeling site Other, peptide KNPQAVLDVLKFYDSNTVK) was -21.3% and the inhibition at 0.1 µM (MAP2K3; labeling site Activation Loop, peptide MCDFGISGYLVDSVAKTMDAGCKPYMAPER) was 6.8%. For the same compound, the inhibition at 0.1 µM (MAP2K3; labeling site Lys1, peptide HAQSGTIMAVKR) was 8%, the inhibition at 0.1 µM (MAP2K3; labeling site Lys2, peptide DVKPSNVLINK) was 8.2% and the inhibition at 0.1 µM (IKKa) was 2.6%. It also gave an inhibition at 0.1 µM (MAP3K2) of 30.6%, a Kd (FLT3-ITD and TKD mutants) of 0.79 to 5.6 nM and an Inhibition (TAO1, TAO3) of 73.9%. It also gave an Inhibition (MARK2, MARK3) of 50.8%, an inhibition at 0.1 µM (RSK2 domain2) of -18.2% and an inhibition at 0.1 µM (PAN3; peptide IQKSSNFGYITSCYK) of -8.4%. For the same compound, the inhibition at 0.1 µM (PAN3; peptide VMDPTKILITGK) was -9.4%, the Inhibition (PCTAIRE1, PCTAIRE3) was 79.0% and the inhibition at 0.1 µM (MAP3K1) was 57.6%. For the same compound, the inhibition at 0.1 µM (eEF2K) was 12.4% and the inhibition at 0.1 µM (GSK3A) was 22.6%.
